According to the supplement of paper PMC11061612:

Assays:
[1] = system: EMC-BAC-2 (Non-Small Cell Lung Carcinoma); experiment: Bliss excess, mean over the matrix (fraction); higher = more synergy
Outline: (§1)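 Cell lines in DMEM/F12 or RPMI with 10% FBS were plated in 1536-well plates, held 24 hours at 37°C, 5% CO2, then given two-drug dose matrices for 72 hours (DMSO typically 0.2%). Viability was read by CellTiter-Glo 2.0 luminescence and scaled as inhibition from 0 (vehicle wells) to 1 (blank wells). Combination Emax is the second-highest inhibition in the matrix; Bliss excess is observed combination effect minus expected EA + EB − EA·EB, EA and EB being single-agent effects.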

GI-1 (Glioblastoma) = experiment: as above
Outline: as §1

IMR-5 (Neuroblastoma) = experiment: as above
Outline: as §1

[2] = system: KYSE-150 (Esophageal Squamous Cell Carcinoma); experiment: as above
Outline: as §1

[3] = system: KYSE-50 (Esophageal Squamous Cell Carcinoma); experiment: as above
Outline: as §1

NB7 (Neuroblastoma) = experiment: as above
Outline: as §1

[4] = system: NCI-H1573 (Lung Adenocarcinoma); experiment: as above
Outline: as §1

[5] = system: NCI-H2347 (Lung Adenocarcinoma); experiment: as above
Outline: as §1

[6] = system: NCI-N87 (Gastric Carcinoma); experiment: as above
Outline: as §1

[7] = system: OCUM-1 (Gastric Carcinoma); experiment: as above
Outline: as §1

[8] = system: PF-382 (T-Lymphoblastic Leukemia); experiment: as above
Outline: as §1

RPMI-7951 (Melanoma) = experiment: as above
Outline: as §1

[9] = system: SNU-C1 (Colorectal Carcinoma); experiment: as above
Outline: as §1

[10] = system: ASH-3 (Thyroid Gland Carcinoma); experiment: combination Emax (second highest fraction inhibited in the dose matrix, 72 h); higher = more inhibition; extreme values may be limits of the assay
Outline: as §1

EW-18 (Ewing's Sarcoma) = experiment: as above
Outline: as §1

[11] = system: KINGS-1 (Low Grade Glioma); experiment: as above
Outline: as §1

[12] = system: LOU-NH91 (Squamous Cell Lung Carcinoma); experiment: as above
Outline: as §1

[13] = system: OCUM-1 (Gastric Carcinoma); experiment: as above
Outline: as §1

[14] = system: SNU-C1 (Colorectal Carcinoma); experiment: as above
Outline: as §1

[15] = system: VMRC-LCD (Lung Adenocarcinoma); experiment: as above
Outline: as §1
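Wherever Bliss excess, mean over the matrix is given: after 72 h of two-drug dosing.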

Compound	Bliss excess [1]	Bliss excess (GI-1 (Glioblastoma))	Bliss excess (IMR-5 (Neuroblastoma))	Bliss excess [2]	Bliss excess [3]	Bliss excess (NB7 (Neuroblastoma))	Bliss excess [4]	Bliss excess [5]	Bliss excess [6]	Bliss excess [7]	Bliss excess [8]	Bliss excess (RPMI-7951 (Melanoma))	Bliss excess [9]	combination Emax [10]	combination Emax (EW-18 (Ewing's Sarcoma))	combination Emax [11]	combination Emax [12]	combination Emax [13]	combination Emax [14]	combination Emax [15]
COc1nnc2ccc(N3CCC(c4ccc(OCCN5CCN(C)C(=O)[C@H]5C)cc4)CC3)nn12 [AZD5153] + Cn1cnc2c(F)c(Nc3ccc(Br)cc3Cl)c(C(=O)NOCCO)cc21 [Selumetinib] (first compound max 1 µM, 7x7, partner max 10 µM)	-0.0101	0.0286	-0.0047	0.0195	0.0571	-0.0011	0.0491	-0.0361	-0.0399	-0.0347	0.0686	0.02	-0.0447	0.713	0.59	0.323	0.63	0.909	0.83	0.575
CCc1c2c(nc3ccc(O)cc13)-c1cc3c(c(=O)n1C2)COC(=O)[C@]3(O)CC [SN-38] + CN(C)CCCOc1ccc(-c2ccc3ncc4c(c3c2)n(C2CCOCC2)c(=O)n4C)cn1 [AZD0156] (first compound max 0.3 µM, 7x7, partner max 1 µM)	0.0414	0.0399	0.0314	0.1	-0.0053	-0.0027	-0.0359	-0.0118	-0.0447	-0.0395	0.0739	0.0647	-0.0125	0.844	0.633	0.243	0.857	0.635	0.419	0.0996
NC1(C(=O)N[C@@H](CCO)c2ccc(Cl)cc2)CCN(c2ncnc3[nH]ccc23)CC1 [Capivasertib] + C[C@@H]1COCCN1C2=NC(=NC(=C2)C3(CC3)[S@](=N)(=O)C)C4=C5C=CNC5=NC=C4 [AZD6738] (first compound max 10 µM, 7x7, partner max 10 µM)	0.0152	-0.0606	0.019	-0.0545	-0.0673	-0.0518	-0.0522	-0.0218	-0.0567	-0.0088	-0.0059	-0.0632	-0.0534	0.697	0.811	0.425	0.569	0.774	0.533	0.566
COc1nnc2ccc(N3CCC(c4ccc(OCCN5CCN(C)C(=O)[C@H]5C)cc4)CC3)nn12 [AZD5153] + C=CCn1c(=O)c2cnc(Nc3ccc(N4CCN(C)CC4)cc3)nc2n1-c1cccc(C(C)(C)O)n1 [AZD1775] (first compound max 1 µM, partner max 1 µM)	-0.0014	-0.0143	-0.0213	-0.049	0.0211	-0.0352	-0.0197	0.0293	-0.0415	-0.0217	-0.0176	-0.0223	-0.0563	0.742	0.687	0.251	0.948	0.511	0.546	0.943
COc1cccc(OCCCN)c1-c1cc(Nc2cnc(C#N)cn2)n[nH]1 [Prexasertib] + C=CCn1c(=O)c2cnc(Nc3ccc(N4CCN(C)CC4)cc3)nc2n1-c1cccc(C(C)(C)O)n1 [AZD1775] (first compound max 1 µM, partner max 1 µM)	0.0413	0.05	0.12	0.149	0.0242	0.0708	0.108	-0.0548	-0.0324	0.0518	-0.0038	0.0723	0.0175	0.848	0.723	0.638	0.716	0.808	0.847	0.772
COc1nnc2ccc(N3CCC(c4ccc(OCCN5CCN(C)C(=O)[C@H]5C)cc4)CC3)nn12 [AZD5153] + Cc1c2c(nn1C)CSCc1cc(n(C)n1)CSc1cc(c3ccccc3c1)OCCCc1c(C(=O)O)n(C)c3c-2c(Cl)ccc13 [AZD5991] (first compound max 1 µM, 7x7, partner max 1 µM)	-0.0589	0.0022	-0.0178	-0.0732	0.0144	0.0105	0.0475	-0.0198	-0.0073	0.0024	0.0145	-0.0575	-0.0376	0.88	0.938	0.186	0.705	0.581	0.637	0.925
NC1(C(=O)N[C@@H](CCO)c2ccc(Cl)cc2)CCN(c2ncnc3[nH]ccc23)CC1 [Capivasertib] + CC(C)n1c(=O)n(C)c2cnc3cc(F)c(-c4ccc(OCCCN5CCCCC5)nc4)cc3c21 [AZD1390] (first compound max 10 µM, 7x7, partner max 0.3 µM)	-0.0761	-0.0226	-0.0487	0.0164	-0.0723	0.0125	-0.111	-0.0524	-0.0223	-0.039	-0.0211	-0.0748	-0.068	0.384	0.596	0.374	0.456	0.571	0.528	0.0998
Cc1cc2ncnn2cc1Nc1ncc2c(n1)n(C1CCOCC1)c(=O)n2C [AZD7648] + CCN(CCO)CCCOc1ccc2c(Nc3cc(CC(=O)Nc4cccc(F)c4)[nH]n3)ncnc2c1 [AZD2811] (first compound max 10 µM, 7x7, partner max 1 µM)	0.0514	0.043	-0.0188	0.003	0.0784	0.0415	0.0382	0.0131	0.0081	-0.0093	0.0137	0.0312	-0.0184	0.324	0.68	0.353	0.37	0.369	0.351	0.619
C=CCn1c(=O)c2cnc(Nc3ccc(N4CCN(C)CC4)cc3)nc2n1-c1cccc(C(C)(C)O)n1 [AZD1775] + O=C(c1cc(Cc2n[nH]c(=O)c3ccccc23)ccc1F)N1CCN(C(=O)C2CC2)CC1 [Olaparib] (first compound max 1 µM, partner max 10 µM)	-0.0526	0.0056	-0.0161	0.0282	-0.0206	-0.0171	-0.0251	-0.0921	-0.046	-0.0214	-0.0265	-0.0176	-0.0721	0.262	0.522	0.381	0.383	0.473	0.313	0.34
CN(CCO)CC[C@H](CSc1ccccc1)Nc1ccc(S(=O)(=O)NC(=O)c2ccc(N3CCC([C@@H](O)c4ccccc4-c4ccc(Cl)cc4)CC3)cc2)cc1S(=O)(=O)C(F)(F)F [AZD4320] + C=CCn1c(=O)c2cnc(Nc3ccc(N4CCN(C)CC4)cc3)nc2n1-c1cccc(C(C)(C)O)n1 [AZD1775] (first compound max 1 µM, partner max 1 µM)	-0.0078	0.0542	0.118	-0.0634	-0.0682	0.0051	-0.0052	0.034	0.0086	0.03	-0.0132	-0.0023	-0.0588	0.531	0.888	0.526	0.822	0.87	0.613	0.562
CN(CCO)CC[C@H](CSc1ccccc1)Nc1ccc(S(=O)(=O)NC(=O)c2ccc(N3CCC([C@@H](O)c4ccccc4-c4ccc(Cl)cc4)CC3)cc2)cc1S(=O)(=O)C(F)(F)F [AZD4320] + Cc1cc2ncnn2cc1Nc1ncc2c(n1)n(C1CCOCC1)c(=O)n2C [AZD7648] (first compound max 1 µM, 7x7, partner max 10 µM)	-0.0482	0.0161	0.0335	-0.0396	-0.0198	-0.0286	-0.0358	-0.0312	-0.0695	-0.0462	0.0269	-0.0109	-0.0376	0.542	0.883	0.466	0.346	0.744	0.633	0.0704
Cn1cnc2c(F)c(Nc3ccc(Br)cc3Cl)c(C(=O)NOCCO)cc21 [Selumetinib] + CC(C)n1c(=O)n(C)c2cnc3cc(F)c(-c4ccc(OCCCN5CCCCC5)nc4)cc3c21 [AZD1390] (first compound max 10 µM, 7x7, partner max 0.3 µM)	0.0079	-0.0165	0.0128	-0.0626	-0.0046	-0.0326	-0.0642	-0.0275	-0.0279	-0.0152	-0.0238	-0.0582	-0.0001	0.304	0.28	0.232	0.219	0.951	0.635	0.15
CC(=O)c1c(C)c2cnc(Nc3ccc(N4CCNCC4)cn3)nc2n(C2CCCC2)c1=O [Palbociclib] + Cn1cnc2c(F)c(Nc3ccc(Br)cc3Cl)c(C(=O)NOCCO)cc21 [Selumetinib] (first compound max 10 µM, 7x7, partner max 10 µM)	0.0049	-0.0734	0.0682	0.127	0.0789	0.0136	0.0017	-0.0362	0.0117	-0.0321	0.043	0.0492	0.0288	0.403	0.58	0.232	0.213	0.944	0.598	0.123
Cc1c2c(nn1C)CSCc1cc(n(C)n1)CSc1cc(c3ccccc3c1)OCCCc1c(C(=O)O)n(C)c3c-2c(Cl)ccc13 [AZD5991] + CN(C)CCCOc1ccc(-c2ccc3ncc4c(c3c2)n(C2CCOCC2)c(=O)n4C)cn1 [AZD0156] (first compound max 1 µM, 7x7, partner max 1 µM)	-0.0313	0.0067	-0.0194	-0.0143	-0.0031	-0.0178	-0.0443	-0.0188	0.0027	-0.016	0.0109	-0.0382	-0.0652	0.344	0.94	0.278	0.47	0.113	0.424	0.2
